Reference: the NIST ThermoML archive (doi:10.1016/j.fluid.2013.08.029)

Test: xn = mol fraction of the nth substance listed
Conditions: 101 kPa, Liquid; for speed of sound: Sing-around technique in a fixed-path interferometer; for mass density: Vibrating tube method

CCCCCn1cc[n+](C)c1.F[B-](F)(F)F [1-methyl-3-pentyl-imidazolium tetrafluoroborate] + OCCO
Conditions	mass density [kg/m3]	speed of sound [m/s]
288.15 K, x1 = 0.0549	1127.51	1659
288.15 K, x1 = 0.1148	1135.95	1639.3
288.15 K, x1 = 0.2053	1145.61	1617.1
288.15 K, x1 = 0.3086	1153.94	1599.3
288.15 K, x1 = 0.4154	1160.64	1587.3
288.15 K, x1 = 0.5063	1165.13	1580.3
288.15 K, x1 = 0.6273	1170.27	1573.1
288.15 K, x1 = 0.7138	1173.4	1569.8
288.15 K, x1 = 0.7982	1176.33	1567.9
288.15 K, x1 = 0.8985	1179.69	1565.9
293.15 K, x1 = 0.0549	1123.89	1646.9
293.15 K, x1 = 0.1148	1132.23	1627.2
293.15 K, x1 = 0.2053	1141.81	1604.6
293.15 K, x1 = 0.3086	1150.12	1586.9
293.15 K, x1 = 0.4154	1156.84	1575
293.15 K, x1 = 0.5063	1161.54	1567.7
293.15 K, x1 = 0.6273	1166.54	1560.8
293.15 K, x1 = 0.7138	1169.75	1558.1
293.15 K, x1 = 0.7982	1172.71	1556.8
293.15 K, x1 = 0.8985	1176.11	1555.3
298.15 K, x1 = 0.0549	1120.27	1634.8
298.15 K, x1 = 0.1148	1128.52	1615.1
298.15 K, x1 = 0.2053	1138.01	1592.4
298.15 K, x1 = 0.3086	1146.31	1574.7
298.15 K, x1 = 0.4154	1153.05	1562.7
298.15 K, x1 = 0.5063	1157.88	1555.5
298.15 K, x1 = 0.6273	1162.86	1548.3
298.15 K, x1 = 0.7138	1166.1	1544.8
298.15 K, x1 = 0.7982	1169.1	1542.3
298.15 K, x1 = 0.8985	1172.64	1540.3
303.15 K, x1 = 0.0549	1116.63	1622.8
303.15 K, x1 = 0.1148	1124.81	1602.9
303.15 K, x1 = 0.2053	1134.22	1580.2
303.15 K, x1 = 0.3086	1142.5	1562.5
303.15 K, x1 = 0.4154	1149.27	1550.6
303.15 K, x1 = 0.5063	1154.21	1543.2
303.15 K, x1 = 0.6273	1159.19	1536.5
303.15 K, x1 = 0.7138	1162.48	1532.8
303.15 K, x1 = 0.7982	1165.5	1530.3
303.15 K, x1 = 0.8985	1169.12	1528.5
308.15 K, x1 = 0.0549	1113	1609.9
308.15 K, x1 = 0.1148	1121.09	1590.9
308.15 K, x1 = 0.2053	1130.44	1568.1
308.15 K, x1 = 0.3086	1138.71	1550.4
308.15 K, x1 = 0.4154	1145.51	1538.5
308.15 K, x1 = 0.5063	1150.46	1531.2
308.15 K, x1 = 0.6273	1155.52	1524.5
308.15 K, x1 = 0.7138	1158.87	1521
308.15 K, x1 = 0.7982	1161.91	1518.5
308.15 K, x1 = 0.8985	1165.59	1516.9
313.15 K, x1 = 0.0549	1109.35	1598.2
313.15 K, x1 = 0.1148	1117.37	1578.9
313.15 K, x1 = 0.2053	1126.66	1556.1
313.15 K, x1 = 0.3086	1134.93	1538.4
313.15 K, x1 = 0.4154	1141.76	1526.5
313.15 K, x1 = 0.5063	1146.71	1519.5
313.15 K, x1 = 0.6273	1151.88	1512.8
313.15 K, x1 = 0.7138	1155.26	1509.2
313.15 K, x1 = 0.7982	1158.35	1506.4
313.15 K, x1 = 0.8985	1162.04	1505.3
318.15 K, x1 = 0.0549	1105.67	1586.7
318.15 K, x1 = 0.1148	1113.63	1566.9
318.15 K, x1 = 0.2053	1122.88	1544.2
318.15 K, x1 = 0.3086	1131.15	1526.6
318.15 K, x1 = 0.4154	1138.02	1514.6
318.15 K, x1 = 0.5063	1142.8	1507.7
318.15 K, x1 = 0.6273	1148.22	1501.5
318.15 K, x1 = 0.7138	1151.65	1497.7
318.15 K, x1 = 0.7982	1154.78	1495.5
318.15 K, x1 = 0.8985	1158.38	1494
